Tests used:
[1] = tested on: Type II collagen arthritis in mice; experiment: Type II collagen arthritis tests; format: in vivo; conditions: injected from day one after collagen injection to end of sixth week, L-carnitine 50 and 100 mg/kg, glucosamine 100 and 200 mg/kg, chondroitin sulphate 50 and 100 mg/kg
Method: Type II collagen arthritis was induced in mice according to the technique described by Trentham (Trentham D. R., Townes A. S., Kang A. H., J. Exp. Med., 146, 857, 1977). One group of mice was immunised by means of intradermal injections of natural collagen emulsified in complete Freund's adjuvant (Difco Labs., Detroit, U.S.A.) at the base of the tail. Three weeks later these animals were re-injected intraperitoneally with the same dose of emulsified collagen. L-carnitine (50 mg/kg and 100 mg/kg), glucosamine (100 mg/kg and 200 mg/kg) and chondroitin sulphate (50 mg/kg and 100 mg/kg) were injected alone or in combination from day one after the collagen injection up to the end of the sixth week. One group of animals (control) received no treatment. The assessment of the severity of the oedema was done according to its intensity with scores ranging from 1 to 4. […] When L-carnitine was combined with either glucosamine or with chondroitin sulphate an approximately 50% reduction of arthrosis was obtained.

[2] = tested on: carragenin-induced oedema in the rat; experiment: Carragenin oedema tests; format: in vivo; conditions: for effect on severity of the carragenin-induced oedema: substance alone, 50, 100 and 200 mg/kg one hour prior to carragenin
Method: Carragenin oedema was induced in the rat by injection of 0.1 ml of a 1% carragenin solution (Sigma Chemical) in the subplantar region of the rat's right paw. The volume of the paw was measured by means of a mercury plethysmograph one hour later and over the 5-hour period following carragenin injection.
L-carnitine, glucosamine and chondroitin sulphate were administered one hour prior to carragenin injection, both alone and in combination at doses of 50, 100 and 200 mg/kg of these compounds.

[3] = dose 100 mg/kg (each substance), 2 hours
[4] = dose 100 mg/kg (each substance), 3 hours
[5] = dose 100 mg/kg (each substance), 4 hours
[6] = dose 200 mg/kg (each substance), 1 hour
[7] = dose 200 mg/kg (each substance), 2 hours
[8] = dose 200 mg/kg (each substance), 3 hours
[9] = dose 200 mg/kg (each substance), 4 hours

Molecule	inhibitory effect on the development of the typical signs of arthritis [1]	% Reduction of oedema at various hours after carragenin injection ([2]; dose 100 mg/kg (each substance), 1 hour) [%]	% Reduction of oedema at various hours after carragenin injection [2, 3] [%]	% Reduction of oedema at various hours after carragenin injection [2, 4] [%]	% Reduction of oedema at various hours after carragenin injection [2, 5] [%]	% Reduction of oedema at various hours after carragenin injection [2, 6] [%]	% Reduction of oedema at various hours after carragenin injection [2, 7] [%]	% Reduction of oedema at various hours after carragenin injection [2, 8] [%]	% Reduction of oedema at various hours after carragenin injection [2, 9] [%]	effect on severity of the carragenin-induced oedema [2]
chondroitin sulphate	neither L-carnitine, glucosamine nor chondroitin sulphate when administered alone had any inhibitory effect	10 ± 0.3	10 ± 0.8	5 ± 0.4	5 ± 0.1	10 ± 1.9	15 ± 1.1	20 ± 1.8	10 ± 1.2	failed to modify the severity
N[C@H]1C(O)O[C@H](CO)[C@@H](O)[C@@H]1O (some centres unmarked) [Glucosamine, glucosamine]	neither L-carnitine, glucosamine nor chondroitin sulphate when administered alone had any inhibitory effect		5 ± 0.3	5 ± 0.5	5 ± 0.6	5 ± 0.2	10 ± 0.9	10 ± 1.1	5 ± 0.5	failed to modify the severity
C[N+](C)(C)C[C@H](O)CC(=O)[O-] [L-carnitine]	neither L-carnitine, glucosamine nor chondroitin sulphate when administered alone had any inhibitory effect						10 ± 0.2	5 ± 0.3		failed to modify the severity
